{
  "source": "patent US20080145858A1",
  "about": "“DETECTION AND IDENTIFICATION OF TOXICANTS BY MEASUREMENT OF GENE […]” (priority 2003, published 2008)",
  "tested_on": "Xenopus laevis neurulation stage embryos (stage 15)",
  "experiment": "Xenopus cDNA microarray, differential gene expression after PMA treatment during neurulation (Group II)",
  "type": "in vivo",
  "conditions": "PMA, stage 15",
  "excerpt": "Specifically, the method and screen of the present invention function as follows. EST clones produced from Xenopus laevis unfertilized eggs were used in the present study with ˜1,200 EST clones from a 18,500 EST clone set selected for production of a Xenopus cDNA microarray. The Xenopus microarray was used to measure the effect of chemical treatment on Xenopus embryo gene regulation. The chemical treatment was a phorbol ester, PMA. Xenopus eggs were obtained from females induced for ovulation and fertilized in vitro. Control Xenopus laevis embryos were allowed to develop to stage 8 blastula or stage 15 neurula. Treated embryos were exposed to PMA during cleavage stage or during neurulation with end points of blastula (stage 8) or neurula (stage 15). Specifically, PMA 100 ng/ml was added to the incubation media during cleavage stages for evaluation in stage 8 embryo or PMA was added during neural induction for evaluation in stage 15 embryos. RNA extracted from the embryos was used to generate fluorescent cDNA probes for Xenopus microarray analyses to measure differential gene expression with and without the phorbol ester treatment. Analysis was performed using paired RNA samples to compare PMA-treated and untreated embryos: Group I measured the effects of PMA-treatment during the cleavage stage in stage 8 embryos and Group II measured the effects of PMA-treatment during neurulation in stage 15 embryos. Group III measured the change in gene expression between stage 8 and stage 15 embryos.\ncDNA fragments were obtained by PCR replication of Xenopus laevis unfertilized egg cDNA inserts, purified, quantitated and loaded onto glass chips by robotics. In addition to the selected ˜1,200 genes, 64 lambda Q gene, an internal control cDNA (Genomic Solutions, Inc., Ann Arbor, Mich.) was loaded on the chip. The insert DNA from ˜1,200 clones were PCR amplified using forward and reverse primers (GF.200 primers, Research Genetics, Huntsville, Ala.). A second PCR was carried out using 1 μl of the primary PCR (20 μl) for template. Excess dNTPs, polymerase and other PCR artifacts were removed from the secondary PCR reactions using Millipore Multiscreen plates (Millipore Corporation, Bedford, Mass.) using the standard protocol. The purity of the PCR products was assessed by electrophoresis and documented using an Alphalmager 1000 Digital Imaging System (Alpha Innotech Corporation, San Leandro, Calif.). The DNA obtained by PCR was quantitated using PicoGreen (Molecular Probes, Eugene, Oreg.). The DNA was denatured and arrayed onto amino-silane coated microscope slides (CMT-GAPS coated slides, Corning, Corning, N.Y.) using a Flexys robotic workstation (Genomic Solutions Inc.). The ˜1,200 PCR products were arrayed in duplicate on each slide and cross-linked. Each gene chip contained duplicate cDNA samples.\nTotal RNA was prepared from embryos treated in three separate dishes per treatment group that were pooled. Total RNA was isolated from the frog embryos (1,200 embryos for each probe production) using TRIzol extraction (Gibco BRL, Grand Island, N.Y.) and Qiagen RNeasy kits (Qiagen, Valencia, Calif.). The ethanol precipitated RNA was resuspended in RNase-free water, quantitated with RiboGreen (Molecular Probes, Eugene, Oreg.). Total RNA was further purified using oligoTex mRNA maxi kit (Qiagen Co.) with the bound mRNA eluted with minimum volume of elution buffer and precipitated with ethanol. The recovery rate of mRNA by the ethanol precipitation method was ˜70%. Cy3- or Cy5-tagged probes were produced from an mRNA mixture (20 μl) of Xenopus mRNA (5 μg) and lambda Q gene mRNA (3.5 ng) reverse-transcribed with oligo(dT)18-22 primer and dNTPs and the reverse-transcribed cDNA was cross-linked with Cy3 or Cy5 as described in Clontech Atlas™ Glass Fluorescent Labeling kit manual (www.clontech.com). After hydrolysis of the RNA and purification of the probe (Centricon 50, Millipore, Bedford, Mass.), the cDNA in TE buffer was quantitated by absorbance at 260 nm. […]",
  "note": "Marks after values point to notes of the source that are not given here.",
  "data": [
    {"smiles": "CCCCCCCCCCCCCC(=O)O[C@@H]1[C@@H](C)[C@@]2(O)[C@@H](C=C(CO)C[C@]3(O)C(=O)C(C)=C[C@@H]23)[C@@H]2C(C)(C)[C@]12OC(C)=O", "note": "[PMA, phorbol 12-myristate 12-acetate]", "values": [
      {"measurement": "Cy3/Cy5 by Landmarks (0.25)", "setting": "PBX0135G07 mRNA", "result": 3.95},
      {"measurement": "Cy3/Cy5 by all Data Points (0.469)", "setting": "PBX0135G07 mRNA", "result": 2.11},
      {"measurement": "Normalized by Landmarks (0.25)", "setting": "PBX0135G07 mRNA", "result": 0.253},
      {"measurement": "Normalized by all Data Points (0.469)", "setting": "PBX0135G07 mRNA", "result": 0.474},
      {"measurement": "Ratio of Medians (Cy5/Cy3) First Spot", "setting": "PBX0135G07 mRNA", "result": 0.98},
      {"measurement": "Ratio of Medians (Cy5/Cy3) Mean", "setting": "PBX0135G07 mRNA", "result": "1.01 ± 0.03 ^a"},
      {"measurement": "Ratio of Medians (Cy5/Cy3) Second Spot", "setting": "PBX0135G07 mRNA", "result": 1.04},
      {"measurement": "Cy3/Cy5 by Landmarks (0.25)", "setting": "PBX0135H08 mRNA", "result": 4.93},
      {"measurement": "Cy3/Cy5 by all Data Points (0.469)", "setting": "PBX0135H08 mRNA", "result": 2.63},
      {"measurement": "Normalized by Landmarks (0.25)", "setting": "PBX0135H08 mRNA", "result": 0.203},
      {"measurement": "Normalized by all Data Points (0.469)", "setting": "PBX0135H08 mRNA", "result": 0.380},
      {"measurement": "Ratio of Medians (Cy5/Cy3) First Spot", "setting": "PBX0135H08 mRNA", "result": 0.78},
      {"measurement": "Ratio of Medians (Cy5/Cy3) Mean", "setting": "PBX0135H08 mRNA", "result": "0.81 ± 0.03 ^a"},
      {"measurement": "Ratio of Medians (Cy5/Cy3) Second Spot", "setting": "PBX0135H08 mRNA", "result": 0.84},
      {"measurement": "Normalized by Landmarks (0.25)", "setting": "PBX 0136C09 mRNA", "result": 1.53},
      {"measurement": "Normalized by all Data Points (0.469)", "setting": "PBX 0136C09 mRNA", "result": 2.87},
      {"measurement": "Ratio of Medians (Cy5/Cy3) First Spot", "setting": "PBX 0136C09 mRNA", "result": 4.19},
      {"measurement": "Ratio of Medians (Cy5/Cy3) Mean", "setting": "PBX 0136C09 mRNA", "result": "6.12 ± 1.93 ^a"},
      {"measurement": "Ratio of Medians (Cy5/Cy3) Second Spot", "setting": "PBX 0136C09 mRNA", "result": 8.05},
      {"measurement": "Normalized by Landmarks (0.25)", "setting": "PBX 0136C12 mRNA", "result": 1.51},
      {"measurement": "Normalized by all Data Points (0.469)", "setting": "PBX 0136C12 mRNA", "result": 2.82},
      {"measurement": "Ratio of Medians (Cy5/Cy3) First Spot", "setting": "PBX 0136C12 mRNA", "result": 5.29},
      {"measurement": "Ratio of Medians (Cy5/Cy3) Mean", "setting": "PBX 0136C12 mRNA", "result": "6.02 ± 0.73 ^a"},
      {"measurement": "Ratio of Medians (Cy5/Cy3) Second Spot", "setting": "PBX 0136C12 mRNA", "result": 6.75},
      {"measurement": "Normalized by Landmarks (0.25)", "setting": "PBX 0136F03 mRNA", "result": 1.54},
      {"measurement": "Normalized by all Data Points (0.469)", "setting": "PBX 0136F03 mRNA", "result": 2.90},
      {"measurement": "Ratio of Medians (Cy5/Cy3) First Spot", "setting": "PBX 0136F03 mRNA", "result": 3.67},
      {"measurement": "Ratio of Medians (Cy5/Cy3) Mean", "setting": "PBX 0136F03 mRNA", "result": "6.18 ± 2.5 ^a"},
      {"measurement": "Ratio of Medians (Cy5/Cy3) Second Spot", "setting": "PBX 0136F03 mRNA", "result": 8.68},
      {"measurement": "Normalized by Landmarks (0.25)", "setting": "PBX 0136G06 mRNA", "result": 1.36},
      {"measurement": "Normalized by all Data Points (0.469)", "setting": "PBX 0136G06 mRNA", "result": 2.54},
      {"measurement": "Ratio of Medians (Cy5/Cy3) First Spot", "setting": "PBX 0136G06 mRNA", "result": 4.95},
      {"measurement": "Ratio of Medians (Cy5/Cy3) Mean", "setting": "PBX 0136G06 mRNA", "result": "5.42 ± 0.47 ^a"},
      {"measurement": "Ratio of Medians (Cy5/Cy3) Second Spot", "setting": "PBX 0136G06 mRNA", "result": 5.89},
      {"measurement": "Normalized by Landmarks (0.25)", "setting": "PBX 0136G08 mRNA", "result": 1.36},
      {"measurement": "Normalized by all Data Points (0.469)", "setting": "PBX 0136G08 mRNA", "result": 2.54},
      {"measurement": "Ratio of Medians (Cy5/Cy3) First Spot", "setting": "PBX 0136G08 mRNA", "result": 4.48},
      {"measurement": "Ratio of Medians (Cy5/Cy3) Mean", "setting": "PBX 0136G08 mRNA", "result": "5.43 ± 0.94 ^a"},
      {"measurement": "Ratio of Medians (Cy5/Cy3) Second Spot", "setting": "PBX 0136G08 mRNA", "result": 6.37},
      {"measurement": "Cy3/Cy5 by Landmarks (0.25)", "setting": "PBX0137F04 mRNA", "result": 3.70},
      {"measurement": "Cy3/Cy5 by all Data Points (0.469)", "setting": "PBX0137F04 mRNA", "result": 1.97},
      {"measurement": "Normalized by Landmarks (0.25)", "setting": "PBX0137F04 mRNA", "result": 0.270},
      {"measurement": "Normalized by all Data Points (0.469)", "setting": "PBX0137F04 mRNA", "result": 0.507},
      {"measurement": "Ratio of Medians (Cy5/Cy3) First Spot", "setting": "PBX0137F04 mRNA", "result": 0.95},
      {"measurement": "Ratio of Medians (Cy5/Cy3) Mean", "setting": "PBX0137F04 mRNA", "result": "1.08 ± 0.13 ^a"},
      {"measurement": "Ratio of Medians (Cy5/Cy3) Second Spot", "setting": "PBX0137F04 mRNA", "result": 1.21},
      {"measurement": "Normalized by Landmarks (0.25)", "setting": "PBX 0138E11 mRNA", "result": 1.57},
      {"measurement": "Normalized by all Data Points (0.469)", "setting": "PBX 0138E11 mRNA", "result": 2.95},
      {"measurement": "Ratio of Medians (Cy5/Cy3) First Spot", "setting": "PBX 0138E11 mRNA", "result": 5.02},
      {"measurement": "Ratio of Medians (Cy5/Cy3) Mean", "setting": "PBX 0138E11 mRNA", "result": "6.29 ± 1.27 ^a"},
      {"measurement": "Ratio of Medians (Cy5/Cy3) Second Spot", "setting": "PBX 0138E11 mRNA", "result": 7.56},
      {"measurement": "Normalized by Landmarks (0.25)", "setting": "PBX 0138H03 mRNA", "result": 1.44},
      {"measurement": "Normalized by all Data Points (0.469)", "setting": "PBX 0138H03 mRNA", "result": 2.70},
      {"measurement": "Ratio of Medians (Cy5/Cy3) First Spot", "setting": "PBX 0138H03 mRNA", "result": 6.36},
      {"measurement": "Ratio of Medians (Cy5/Cy3) Mean", "setting": "PBX 0138H03 mRNA", "result": "5.75 ± 0.61 ^a"},
      {"measurement": "Ratio of Medians (Cy5/Cy3) Second Spot", "setting": "PBX 0138H03 mRNA", "result": 5.14},
      {"measurement": "Cy3/Cy5 by Landmarks (0.25)", "setting": "PBX0139G06 mRNA", "result": 3.77},
      {"measurement": "Cy3/Cy5 by all Data Points (0.469)", "setting": "PBX0139G06 mRNA", "result": 2.01},
      {"measurement": "Normalized by Landmarks (0.25)", "setting": "PBX0139G06 mRNA", "result": 0.265},
      {"measurement": "Normalized by all Data Points (0.469)", "setting": "PBX0139G06 mRNA", "result": 0.497},
      {"measurement": "Ratio of Medians (Cy5/Cy3) First Spot", "setting": "PBX0139G06 mRNA", "result": 1.06}
    ]}
  ]
}
